Laboratory results: patent publication US7192607B2, “Formulations for the prevention or the treatment of diseases affecting mucosae or skin, or for pregnancy prevention, and an applicator for the delivery of topical formulations into mucosal cavities” (Infectio Recherche Inc, priority 2002, dated 2007)
“And” between values parts separate entries of the source, which are not always exact repeats. Equal values may be shown once. Read-outs that look alike come from different tables or passages of the source.

Columns and labels:
HSV-2 = details: Howett et al., 1999; cited from earlier work
HSV-1 (strain F) [1] = test: Murine cutaneous infection model, HSV-1 pretreated with SLS or DS; type: in vivo, hairless mice (SKH1)
Experimental: The effect of pretreating HSV-1 (strain F) with SLS on viral infectivity has also been evaluated in a murine cutaneous infection model. Female hairless mice (SKH1; Charles River Breeding Laboratories Inc., St-Constant, QC, Canada), 5–6 weeks old were used throughout this study. […] Mice were anesthetized by intraperitoneal injection of a mixture containing 70 mg/kg ketamine hydrochloride (Rogarsetic* injection USP; Rogar/STB Inc. Montreal, QC, Canada) and 11.5 mg/kg xylazine (Rompun®; Miles Canada Inc., Etobicoke, ON, Canada). The virus was inoculated on the lateral side of the body in the left lumbar skin area. The skin was scratched six times in a crossed-hatched pattern with a 27-gauge needle held vertically. Viral suspension (50 μl) was deposited onto the scarified area and rubbed for 10 to 15 see with a cotton tipped applicator saturated with EMEM+2% FBS or SLS or DS solutions. The scarified area was protected with a corn cushion which was maintained on the mice body with surgical tape. The porous inner wall of the aperture of the corn cushion was impermeabilized with tissue adhesive prior to use to prevent absorption of the drug. The aperture of the corn cushion was also closed with surgical tape. Mice were then returned to their cages and observed twice daily.
In infected untreated mice, no pathological signs of cutaneous infection were visible during the first four days following infection and only the scarified area remained appearent. On day 5, herpetic skin lesions began to appear in some mice in the form of small vesicles distant from the inoculation site. On day 6, almost all untreated mice developed herpetic skin lesions in the form of a 4–5 mm wide band extending from the spine to the ventral midline of the infected dermatome similar to zoster-like infections. Maximal mean lesion score was observed on day 8. Mean lesion score decreased thereafter from day 11 to day 15 because of spontaneous regression of cutaneous lesions in some mice. […] Of prime importance, all mice infected with the virus pretreated with 100 μM SLS survived the infection (data not shown).

HSV-2 (strain 22) = test: Murine intranasal infection model, HSV-2 pretreated with SLS; type: in vivo, Balb/c mice
Experimental: The effect of pretreating HSV-2 (strain 22) with SLS on viral infectivity has also been evaluated in a murine intranasal infection model. In brief, female Balb/c mice (Charles River Breeding Laboratories Inc., St-Constant, QC, Canada) 4 weeks-old were used throughout this study. Prior to the infection, HSV-2 (strain 22) was incubated for 1 h at 37° C. with PBS or with different concentrations of SLS (6.25, 25 or 100 μM) to reach a final viral inoculum of 2,000 PFU/20 μl. Mice were slightly anesthetized using Aerrane® (Isoflurane, USP; Janssen, North York, ON, Canada) and viral suspension (20 μl total volume) was applied into the external left nare of mice. Mice were then returned to their cages and survival was evaluated daily.

HSV-1 (strain F) [2] = test: Infectivity of HSV-1 (strain F) to Vero cells after treatment with SLS or DS (plaque forming units); type: cell-based, Herpes simplex virus type-1; details: Vero cells preincubated 1 h at 37° C. with 6.25 to 100 μM SLS prior to infection; data not shown
HIV-1 (strain NL4-3) = test: Infectivity of HIV-1 (strain NL4-3) pretreated with SLS to 1G5 cells (luciferase activity); type: cell-based; details: virus pretreated with 500 μM SLS for 1 h at 37° C.; FIG. 3
Experimental: The effect of pretreating HIV-1 (strain NL4-3) with SLS on its infectivity to 1G5 cells, a Jurkat E6-1 derivative that harbors two stably integrated constructs made up of the luciferase gene under the control of the HIV-1SF2 LTR, has been also evaluated. In brief, prior to infection, the virus was incubated with either culture medium or 500 μM SLS for 1 h at 37° C. Cells (1×10^5 cells/well) were then incubated with HIV-1 strain NL4-3 (10 ng of p24) for 2 h at 37° C. under a 5% CO2 atmosphere. Afterwards, cells were washed, resuspended in 200 μl of complete culture medium and transferred in a 96-well flat-bottomed tissue culture plate (Microtest III, Falcon; Becton Dickinson, Lincoln Park, N.J.). After a 48 h incubation time at 37° C., cells were lysed, subject to a freeze-thaw cycle and luciferase activity was monitored using a microplate luminometer (MLX; Dynex Technologies, Chantilly, Va.).

HSV-2 (15589) = test: Infectivity of HSV-2 (15589), foscarnet-resistant strain, pretreated with SLS on Vero cells (PFU); type: cell-based, Herpes simplex virus type-2
Experimental: (§1) The effect of pretreating different strains of herpes viruses with SLS or DS on their viral infectivities to susceptible cells has been evaluated. In brief, cells were seeded in 24 well-plates (Costar, Montreal, QC, Canada). Prior to infection, the virus was either suspended in culture medium or phosphate buffered saline (PBS), or incubated with different concentrations of SLS in PBS for 1 h at 37° C. At confluency, cells were incubated with viral suspensions by centrifuging the plates (750× g for 45 min at 20° C.) to allow virus adsorption. Virus was removed and cell sheets were then overlaid with 0.5 ml of 0.6% agarose Seaplaque (Marine Colloids, Rockland, Md.) prepared in appropriate culture medium. The plates were incubated for 2 days at 37° C. Cells were then fixed with 10% formaldehyde in PBS for 20 min, washed with deionized water and stained with 0.05% methylene blue. Viral infectivity was evaluated via the determination of Plaque Forming Units (PFU).

HSV-1 (strain F) [3] = test: Infectivity of HSV-1 (strain F) to Vero cells after treatment with SLS or DS (plaque forming units); type: cell-based, Herpes simplex virus type-1; details: for IC50: Human alphaherpesvirus 1, Vero, FIG. 1, read-out: concentration giving a loss of 50% of the viral infectivity
Experimental: as §1
HSV-1 (strain F) infectivity was reduced to 21% when viral particles were pretreated with 25 μM SLS. The infectivities of all HSV-2 strains were between 50 to 70% following preincubation with 25 μM SLS. A complete loss of the infectivity of all strains tested were obtained following pretreatment of the viruses with 50 μM SLS.
When SLS was immediately added to Vero cells following their infection, the loss of viral infectivity was less dramatic compared to that obtained for virus pretreated for 1 h at 37° C. with the same SLS concentrations. […] Similarly, pretreatment of the HSV-2 (strain 333) with SLS also influenced the infectivity of this strain (data not shown). On the other hand, DS reduces the infectivity of the virus independent of whether the virus was pretreated with DS.

HSV-2 (6) = test: Infectivity of HSV-2 (6), acyclovir-resistant strain, pretreated with SLS on Vero cells (PFU); type: cell-based, Herpes simplex virus type-2
Experimental: as §1

[4] = viral suspension pretreated with 100 μM SLS
[5] = virus pretreated with 6.25 μM SLS for 1 hour at 37° C.
[6] = virus pretreated with 12.5 μM SLS for 1 hour at 37° C.
[7] = virus pretreated with 25 μM SLS for 1 hour at 37° C.
[8] = virus pretreated with 50 μM SLS for 1 hour at 37° C.

## CCCCCCCCCCCCOS(=O)(=O)[O-].[Na+] [SLS, Sodium lauryl sulfate]
HSV-2
  inactivation of HSV-2: potent inactivator
HSV-1 (strain F) [1]; virus pretreated with 100 μM SLS for 1 h at 37° C.
  cutaneous lesions: did not demonstrate any signs of cutaneous lesions
HSV-1 (strain F) [1]; virus pretreated with 100 μM SLS, data not shown
  mice that survived the infection: all
HSV-1 (strain F) [1]; virus pretreated with 6.25 and 25 μM SLS for 1 h at 37° C.
  mean lesion score: did not demonstrate a significant reduction
HSV-2 (strain 22); viral inoculum pretreated with 6.25 μM SLS
  mice that survived the infection: 67%
HSV-2 (strain 22); viral inoculum pretreated with 25 μM SLS
  mice that survived the infection: 67%
HSV-2 (strain 22); [4]
  mice that survived the infection: all
  signs of illness: did not demonstrate any sign of illness
HSV-1 (strain F) [2]
  infectivity of HSV-1 (strain F) after preincubation of Vero cells (not virus) with SLS: did not result in a loss of infectivity
HIV-1 (strain NL4-3)
  HIV-1 infectivity to 1G5 cells: almost completely inhibited
HSV-2 (15589); [5]
  PFU (% of control) for HSV-2 (15589): 108.7 ± 22.2 % of control
HSV-2 (15589); [6]
  PFU (% of control) for HSV-2 (15589): 115.1 ± 17.5 % of control
HSV-2 (15589); [7]
  PFU (% of control) for HSV-2 (15589): 59.0 ± 4.0 % of control
HSV-2 (15589); [8]
  PFU (% of control) for HSV-2 (15589): 0 % of control
HSV-1 (strain F) [3]; 100 μM SLS without pretreatment
  inhibition of viral infectivity: not complete
HSV-1 (strain F) [3]; virus not pretreated (added without pretreatment)
  IC50: 75 µM
HSV-1 (strain F) [3]; virus pretreated for 1 h at 37° C.
  IC50: 20 µM
HSV-1 (strain F) [3]; preincubation of virus with 50 μM SLS
  inhibition of viral infectivity: complete inhibition
HSV-1 (strain F) [3]; [5]
  PFU (% of control) for HSV-1 (F): 101.1 ± 7.0 % of control
HSV-1 (strain F) [3]; [6]
  PFU (% of control) for HSV-1 (F): 79.2 ± 36.4 % of control
HSV-1 (strain F) [3]; virus pretreated with 25 μM SLS for 1 hour at 37° C., sulfate
  PFU (% of control) for HSV-1 (F): 21 % of control and 21.2 ± 18.0 % of control
HSV-1 (strain F) [3]; [8]
  PFU (% of control) for HSV-1 (F): 0 % of control
HSV-2 (6); [5]
  PFU (% of control) for HSV-2 (6): 105.3 ± 12.4 % of control
HSV-2 (6); [6]
  PFU (% of control) for HSV-2 (6): 82.1 ± 40.7 % of control
HSV-2 (6); [7]
  PFU (% of control) for HSV-2 (6): 51.1 ± 30.1 % of control
HSV-2 (6); [8]
  PFU (% of control) for HSV-2 (6): 0 % of control
